This passage reports IC50 results from patent US10064861B2, “Macrocyclic pyridazinone derivatives” (Merck Patent GmbH, priority 2013, dated 2018).

Molecules are shown by their SMILES. A value given as a limit tells only on which side of the number the result lay.

The target of assay [1] is IRAK4 (Homo sapiens (Human), UniProt Q9NWZ3). In words: IRAK4 enzymatic assay. The assay is classed as biochemical. The settings on record: His-TEV-IRAK4, ATP 2 μM, STK1-biotin peptide 300 nM, 3 hours at 30° C. As to the method:
IRAK4 is a human purified recombinant enzyme (His-TEV-IRAK1 (194-712) IRAK4 hydrolyses ATP, autophosphorylates and phosphorylates a Serine/Threonine generic peptidic substrate (STK: 61ST1BLC from CisBio International based in Bagnols/Cèze FR).
Measurement of IRAK-4 inhibition is performed in streptavidin coated 384 well FlashPlate (PerkinElmer #SMP410A). His-TEV-IRAK4 (20 ng/well), ATP (2 μM, [^33P]ATP 0.25 μCi/well), STK1-biotin peptide (300 nM) and compounds in DMSO (range of concentrations from 20 μM to 1 nM) or controls (2% DMSO) are incubated for 3 hours at 30° C. in assay buffer: Hepes pH 7.0 50 mM, Fatty acid-free BSA 0.1%, Dithiothreitol DTT 2 mM, MgCl2 10 mM, EGTA 0.5 mM, Tween-20 0.01%, MnCl2 5 mM.
Kinase reaction is stopped by addition of EDTA. Supernatant is discarded, plates are washed three times with 150 mM NaCl and radioactivity is then measured in a Microbeta Trilux reader.

Assay [2] has as its target IRAK1 (Homo sapiens (Human), UniProt P51617). In words: IRAK1 enzymatic assay. Format: biochemical. The settings on record: His-TEV-IRAK-1, ATP 1 μM, 3 hours at 30° C. The protocol:
IRAK1 is a human purified recombinant enzyme (His-TEV-IRAK1 (194-712)) In this assay, IRAK-1 hydrolyses ATP and autophosphorylates.
Measurement of IRAK-1 inhibition is performed in streptavidin coated 384 well FlashPlate (PerkinElmer #SMP410A).
His-TEV-IRAK-1 (15 ng/well), ATP (1 μM, [^33P]ATP 0.25 μCi/well) and compounds in DMSO (range of concentrations from 20 μM to 1 nM) or controls (2% DMSO) are incubated for 3 hours at 30° C. in assay buffer: Hepes pH 7.0 50 mM, Fatty acid-free BSA 0.1%, Dithiothreitol DTT 2 mM, MgCl2 10 mM, EGTA 0.5 mM, Triton-X-100 0.01%. Kinase reaction is stopped by addition of EDTA. Supernatant is discarded, plates are washed three times with 150 mM NaCl and radioactivity is then measured in a Microbeta Trilux reader.

In assay [3] the test system is TLR7 induced IL-6 secretion in human mononuclear cells (PBMC's). In words: TLR7 induced IL-6 in human PBMC's. The settings on record: TLR7 specific ligand 2 uM overnight, IL-6 AlphaLISA. Format: cell-based. As to the method:
TLR7 Induced IL-6 in Human PBMC's
Human PBMC assay is used as one of the functional assay to monitor the activity of IRAK1 and IRAK4 small molecule inhibitors on TLR7 induced IL-6 secretion in human mononuclear cells (PBMC's). Human PBMCs are prepared from buffy coats (whole blood enriched with leukocytes and platelets) obtained from healthy volunteers used either fresh or frozen are plated in assay media (RPMI+2% P/S/L-glu+10% HI-FBS) and pre-treated with compounds in DMSO/media (range of concentrations from 25 μM to 0.4 nM) or controls (0.25% DMSO) for 30 minutes at 37° C. in assay media. Following pre-treatment with IRAK1 and IRAK4 inhibitors, PBMC's are stimulated with TLR7 specific ligand (2 uM) overnight (16-18 hrs) at 37° C. After incubation supernatant is transferred to 384 well PE AlphaPlate-384 (6005350) and IL-6 is quantified using Perkin Elmer IL-6 Alpha LISA kit (AL223C). Plates are read on an Envision® plate reader with Alpha Technology®.
A general note: Alpha assays give light when donor and acceptor beads are brought close together.

Sequence of IRAK4 (Q9NWZ3 whole entry): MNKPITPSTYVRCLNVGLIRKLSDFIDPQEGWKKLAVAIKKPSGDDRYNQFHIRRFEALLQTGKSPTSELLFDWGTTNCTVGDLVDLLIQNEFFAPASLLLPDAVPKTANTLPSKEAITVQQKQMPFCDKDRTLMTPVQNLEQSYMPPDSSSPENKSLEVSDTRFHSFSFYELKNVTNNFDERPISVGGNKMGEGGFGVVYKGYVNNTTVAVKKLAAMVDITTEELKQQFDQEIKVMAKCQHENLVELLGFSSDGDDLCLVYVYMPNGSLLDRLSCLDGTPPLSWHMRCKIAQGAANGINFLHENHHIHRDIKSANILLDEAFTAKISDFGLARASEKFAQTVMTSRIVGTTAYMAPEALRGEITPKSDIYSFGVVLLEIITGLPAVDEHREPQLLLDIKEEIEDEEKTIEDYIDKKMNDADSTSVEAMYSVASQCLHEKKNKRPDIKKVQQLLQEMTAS
Sequence of IRAK1 (P51617 194-712): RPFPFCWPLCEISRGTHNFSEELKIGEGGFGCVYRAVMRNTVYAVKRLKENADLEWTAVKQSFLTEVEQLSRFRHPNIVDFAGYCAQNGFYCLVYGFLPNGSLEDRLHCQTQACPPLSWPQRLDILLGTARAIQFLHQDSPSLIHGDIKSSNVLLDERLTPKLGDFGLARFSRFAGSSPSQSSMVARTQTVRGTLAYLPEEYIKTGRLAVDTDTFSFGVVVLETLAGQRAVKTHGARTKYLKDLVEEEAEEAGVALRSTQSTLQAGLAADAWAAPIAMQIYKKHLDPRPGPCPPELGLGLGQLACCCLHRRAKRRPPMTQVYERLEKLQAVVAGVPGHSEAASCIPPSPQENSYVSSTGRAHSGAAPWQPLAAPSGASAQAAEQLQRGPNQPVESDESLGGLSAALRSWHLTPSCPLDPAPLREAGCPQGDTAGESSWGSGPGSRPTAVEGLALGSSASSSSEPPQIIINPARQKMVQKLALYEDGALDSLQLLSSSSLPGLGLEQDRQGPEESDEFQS

Take `Cc1cc(=O)n2nc1-c1cccc(c1)Cn1c(nc3ccccc31)NC(=O)c1cccc(c1)C2` [Compound 4, 28-Methyl-8,15,17,25,29-pentaazahexacyclo[23.3.1.1^2,61^19,230^8,160^9,14]hentriaconta-1(29),2(31),3,5,9(14),10,12,15,19(30),20,22,27-dodecaene-18,26-dione]: the IC50 (usually the midpoint of a concentration-inhibition curve) in assay [1] is 100 to 1000 nM; in assay [2], less than 100 nM.

As for `O=C1Nc2nc3cc(F)c(F)cc3n2Cc2cccc(c2)-c2ccc(=O)n(n2)Cc2cccc1c2` [Compound 6, 11,12-difluoro-8,15,17,25,29-pentaazahexacyclo[23.3.1.1^2,6.1^9,23.0^8,16.0^9,14]hentriaconta-1(29),2(31),3,5,9(14),10,12,15,19(30),20,22,27-dodecaene-18,26-dione], the results for the IC50 in assay [1] and in assay [2] were 100 to 1000 nM and less than 100 nM, respectively. Consider `O=C1Nc2nc3ccccc3n2Cc2cncc(c2)-c2ccc(=O)n(n2)Cc2cccc1c2` [Compound 7, 4,8,15,17,25,29-hexaazahexacyclo[23.3.1.1^2,6.1^19,23.0^8,16.0^9,14]hentriaconta-1(29),2(31),3,5,9(14),10,12,15,19(30),20,22,27-dodecaene-18,26-dione], for which the IC50 in assay [1] and in assay [3] was less than 100 nM each time. On to `O=C1Nc2nc3ccccc3n2CCOc2cccc(c2)-c2ccc(=O)n(n2)Cc2cccc1c2` [Compound 9, 26-oxa-6,14,16,23,33-pentaazahexacyclo[25.3.1.12,6,1^8,12}0^15,23.0^17,22]tritriaconta-1(31),2(33),3,8,10,12(32),15,17,19,21,27,29-dodecaene-5,13-dione], for which the IC50 in assay [1] was 100 to 1000 nM; in assay [2] it was less than 100 nM. As for `O=C1Nc2nc3ccccc3n2Cc2ccc(F)c(c2)-c2ccc(=O)n(n2)Cc2cccc1c2` [Compound 10, 3-Fluoro-8,15,17,25,29-pentaazahexacyclo[23.3.1.1^2,61^19,230^8,160^9,14]hentriaconta-1(29),2(31),3,5,9(14),10,12,15,19(30),20,22,27-dodecaene-18,26-dione], the IC50 is 100 to 1000 nM in assay [1] and less than 100 nM in assay [2].

`Cc1cc(=O)n2nc1-c1cccc(c1)CCn1c(nc3ccccc31)NC(=O)c1cccc(c1)C2` [Compound 11, 3-methyl-6,14,16,23,32-pentaazahexacyclo[24.3.1.1^2,6.1^8,12.0^15,23.017,22]dotriaconta-1(30),2(32),3,8,10,12(31),15,17,19,21,26,28-dodecaene-5,13-dione]: the IC50 in assay [1] and in assay [2] was less than 100 nM throughout. Take `O=C1Nc2nc3ccccc3n2Cc2ccc(Cl)c(c2)-c2ccc(=O)n(n2)Cc2cccc1c2` [Compound 13, 3-chloro-8,15,17,25,29-pentaazahexacyclo[23.3.1.1^2,6.1^19,23.0^8,16.0^9,14]hentriaconta-1(29),2(31),3,5,9(14),10,12,15,19(30),20,22,27-dodecaene-18,26-dione]: the figures for the IC50 in assay [1] and in assay [2] were 100 to 1000 nM and less than 100 nM, respectively. As to `O=C1Nc2nc3ccccc3n2CCn2cc(cn2)-c2ccc(=O)n(n2)Cc2cccc1c2` [Compound 14, 4,6,8,15,17,25,29-heptaazahexacyclo[23.3.1.12,5.119,23.08,16.09,14]hentriaconta-1(29),2(31),3,9(14),10,12,15,19(30),20,22,27-undecaene-18,26-dione], in assay [3], the IC50 fell in the range of 100 to 1000 nM. For the molecule `COc1ccc2cc1-c1ccc(=O)n(n1)Cc1cccc(c1)C(=O)Nc1nc3ccccc3n1C2` [Compound 15, 3-methoxy-8,15,17,25,29-pentaazahexacyclo[23.3.1.1^2,6.1^19,23.0^8,16.0^9,14]hentriaconta-1(29),2(31),3,5,9(14),10,12,15,19(30),20,22,27-dodecaene-18,26-dione], the IC50 in assay [1] and in assay [2] was less than 100 nM each time. As to `COc1ccc2cc1Cn1c(nc3ccccc31)NC(=O)c1cccc(c1)Cn1nc-2ccc1=O` [Compound 19, 5-methoxy-8,15,17,25,29-pentaazahexacyclo[23.3.1.1^2,6.1^19,23.0^8,16.0^9,14]hentriaconta-1(29),2(31),3,5,9(14),10,12,15,19(30),20,22,27-dodecaene-18,26-dione], the values for the IC50 in assay [1] and in assay [2] were less than 100 nM and 100 to 1000 nM, respectively.

On to `COc1cc2nc3n(c2cc1OC)CCn1cc(cn1)-c1ccc(=O)n(n1)Cc1cccc(c1)C(=O)N3` [Compound 22], for which the IC50 in assay [1] and in assay [2] was less than 100 nM in each case. With `NCCc1ccc2c(c1)nc1n2Cc2cccc(c2)-c2ccc(=O)n(n2)Cc2cccc(c2)C(=O)N1` [Compound 23], the IC50 in assay [1] and in assay [2] was less than 100 nM in each case.

For `CC1c2cccc(c2)C(=O)Nc2nc3ccccc3n2Cc2cccc(c2)-c2ccc(=O)n1n2` (stereo not drawn) [Compound 24], the 50% inhibitory concentration (IC50) in assay [1] and in assay [2] was less than 100 nM throughout. In the case of `Cc1cc(=O)n2nc1-c1cnn(c1)CCn1c(nc3ccccc31)NC(=O)c1cccc(c1)C2` [Compound 26], the IC50 in assay [1] and in assay [2] was less than 100 nM each time. As to `O=C1Nc2nc3cc(CN4CCOCC4)ccc3n2Cc2cccc(c2)-c2ccc(=O)n(n2)Cc2cccc1c2` [Compound 27], the IC50 in assay [1] and in assay [2] was less than 100 nM throughout.

With `Cc1nn2c(C)c1-c1ccc(=O)n(n1)Cc1cccc(c1)C(=O)Nc1nc3ccccc3n1CC2` [Compound 28], the IC50 in assay [1] and in assay [2] was 100 to 1000 nM throughout. As for `COc1ccc2c(c1)nc1n2Cc2cccc(c2)-c2ccc(=O)n(n2)Cc2cccc(c2)C(=O)N1` [Compound 29], the IC50 in assay [1] and in assay [2] was less than 100 nM each time. With `Cc1cc(=O)n2nc1OCCC(O)Cn1c(nc3ccccc31)NC(=O)c1cccc(c1)C2` (stereo not drawn) [Compound 30], the IC50 in assay [1] and in assay [2] was less than 100 nM in each case. For the molecule `O=C1Nc2nc3cc(O)ccc3n2Cc2cccc(c2)-c2ccc(=O)n(n2)Cc2cccc1c2` [Compound 31], the IC50 in assay [1] is 100 to 1000 nM; in assay [2], less than 100 nM.

Take `COc1ccc2c(c1)nc1n2CCn2cc(cn2)-c2ccc(=O)n(n2)Cc2cccc(c2)C(=O)N1` [Compound 33]: the IC50 in assay [1] and in assay [2] was less than 100 nM in each case. Consider `O=C1Nc2nc3ccccc3n2C/C=C\COc2ccc(=O)n(n2)Cc2cccc1c2` [Compound 34], for which the concentration for half-maximal inhibition (IC50) in assay [1] and in assay [2] was less than 100 nM in each case. `COc1ccc2c(c1)nc1n2CC(O)CCOc2ccc(=O)n(n2)Cc2cccc(c2)C(=O)N1` (stereo not drawn) [Compound 35]: the IC50 in assay [1] and in assay [2] was less than 100 nM each time. Regarding `CC[C@H]1c2cccc(c2)C(=O)Nc2nc3ccccc3n2Cc2cccc(c2)-c2ccc(=O)n1n2` [Compound 36a, 24-ethyl-8,15,17,26,29-pentaazahexacyclo[23.3.1.1^2,6.1^19,23.0^8,16.0^9,14]hentriaconta-1(29),2(31),3,5,9(14),10,12,15,19,21,23(30),27-dodecaene-18,26-dione], the IC50 in assay [1] and in assay [2] was less than 100 nM throughout. As for `CC[C@@H]1c2cccc(c2)C(=O)Nc2nc3ccccc3n2Cc2cccc(c2)-c2ccc(=O)n1n2` [Compound 36b, 24-ethyl-8,15,17,26,29-pentaazahexacyclo[23.3.1.1^2,6.1^19,23.0^8,16.0^9,14]hentriaconta-1(29),2(31),3,5,9(14),10,12,15,19,21,23(30),27-dodecaene-18,26-dione], the IC50 in assay [1] is 100 to 1000 nM; in assay [2], less than 100 nM.

Regarding `COc1ccc2cc1CCn1c(nc3ccccc31)NC(=O)c1cccc(c1)Cn1nc-2ccc1=O` [Compound 37], the half-maximal inhibitory concentration (IC50) in assay [1] and in assay [2] was less than 100 nM in each case.

With `O=C1Nc2nc3ccccc3n2CCc2cc(ccc2O)-c2ccc(=O)n(n2)Cc2cccc1c2` [Compound 38], the IC50 in assay [1] and in assay [2] was less than 100 nM throughout.
